Assay results taken from patent publication US7449617B2, “Plants with elevated levels of gallic acid/polyphenol oxidase and methods of generating such plants” (The Regents of the University of California, priority 2004, dated 2008).

Tested on: buffered rumen fluid
Test: In vitro gas production technique: incubation of alfalfa hays in buffered rumen fluid with added tannins, net ammonium-N in supernatant
Set-up: species or system cows
Details: for % Difference from control / Net ammonium-N in supernatant: 72 h; for Net ammonium-N in supernatant: 30 ml buffered rumen fluid, SD in parenthesis; for Effect on ammonia-N (in words): in vitro rumen fluid system, preliminary study
Experimental: A preliminary in vitro study was conducted to evaluate GA and TA (tannic acid) and to compare this with CT (a source of condensed tannins). The study utilized an in vitro gas production technique that has been established and validated at UC Davis. This system uses canulated cows as a rumen fluid donor. […] The reduction in protein degradation and ammonia nitrogen accumulation was dependant on type of tannins and levels used in each of the experiments. […] [table]

[1] = CUF101, tannin added at 2% DM, Experiment 1
[2] = CUF101, tannin added at 4% DM, Experiment 1
[3] = CUF101, tannin added at 5% DM, Experiment 2
[4] = CUF101, tannin added at 6% DM, Experiment 1
[5] = CUF101, tannin added at 10% DM, Experiment 2
[6] = CUF101, tannin added at 15% DM, Experiment 2
[7] = CUF101 alfalfa hay 200 mg, tannin added at 2% DM, Experiment 1
[8] = CUF101 alfalfa hay 200 mg, tannin added at 4% DM, Experiment 1
[9] = CUF101 alfalfa hay 200 mg, tannin added at 5% DM, Experiment 2
[10] = CUF101 alfalfa hay 200 mg, tannin added at 6% DM, Experiment 1
[11] = CUF101 alfalfa hay 200 mg, tannin added at 10% DM, Experiment 2
[12] = CUF101 alfalfa hay 200 mg, tannin added at 15% DM, Experiment 2
[13] = Sutter alfalfa hay 200 mg, tannin added at 2% DM, Experiment 1
[14] = Sutter alfalfa hay 200 mg, tannin added at 4% DM, Experiment 1
[15] = Sutter alfalfa hay 200 mg, tannin added at 5% DM, Experiment 2
[16] = Sutter alfalfa hay 200 mg, tannin added at 6% DM, Experiment 1
[17] = Sutter alfalfa hay 200 mg, tannin added at 10% DM, Experiment 2
[18] = Sutter alfalfa hay 200 mg, tannin added at 15% DM, Experiment 2
[19] = Sutter, tannin added at 2% DM, Experiment 1
[20] = Sutter, tannin added at 4% DM, Experiment 1
[21] = Sutter, tannin added at 5% DM, Experiment 2
[22] = Sutter, tannin added at 6% DM, Experiment 1
[23] = Sutter, tannin added at 10% DM, Experiment 2
[24] = Sutter, tannin added at 15% DM, Experiment 2

SMILES: O=C(O)c1cc(O)c(O)c(O)c1 [GA, 3,4,5-trihydroxybenzoic acid]
- % Difference from control [1]: +3.20%
- % Difference from control [2]: +4.92%
- % Difference from control [3]: +1.68%
- % Difference from control [4]: +5.63%
- % Difference from control [5]: −1.33%
- % Difference from control [6]: −3.54%
- Net ammonium-N in supernatant [7]: 3.610 (0.338) mg
- Net ammonium-N in supernatant [8]: 3.670 (0.404) mg
- Net ammonium-N in supernatant [9]: 3.450 (0.240) mg
- Net ammonium-N in supernatant [10]: 3.695 (0.305) mg
- Net ammonium-N in supernatant [11]: 3.348 (0.254) mg
- Net ammonium-N in supernatant [12]: 3.273 (0.234) mg
- Net ammonium-N in supernatant [13]: 3.540 (0.432) mg
- Net ammonium-N in supernatant [14]: 3.608 (0.564) mg
- Net ammonium-N in supernatant [15]: 3.415 (0.191) mg
- Net ammonium-N in supernatant [16]: 3.575 (0.431) mg
- Net ammonium-N in supernatant [17]: 3.348 (0.206) mg
- Net ammonium-N in supernatant [18]: 3.298 (0.177) mg
- % Difference from control [19]: +0.48%
- % Difference from control [20]: −2.41%
- % Difference from control [21]: +0.21%
- % Difference from control [22]: +1.48%
- % Difference from control [23]: −1.76%
- % Difference from control [24]: −3.23%
- Effect on ammonia-N (in words): did not show any affect

SMILES: O=C(OC[C@H]1O[C@@H](OC(=O)c2cc(O)c(O)c(OC(=O)c3cc(O)c(O)c(O)c3)c2)[C@H](OC(=O)c2cc(O)c(O)c(OC(=O)c3cc(O)c(O)c(O)c3)c2)[C@@H](OC(=O)c2cc(O)c(O)c(OC(=O)c3cc(O)c(O)c(O)c3)c2)[C@@H]1OC(=O)c1cc(O)c(O)c(OC(=O)c2cc(O)c(O)c(O)c2)c1)c1cc(O)c(O)c(OC(=O)c2cc(O)c(O)c(O)c2)c1 [TA, tannic acid]
- % Difference from control [1]: −0.66%
- % Difference from control [2]: −4.00%
- % Difference from control [3]: −16.23%
- % Difference from control [4]: −8.52%
- % Difference from control [5]: −26.23%
- % Difference from control [6]: −48.57%
- Net ammonium-N in supernatant [7]: 3.475 (0.269) mg
- Net ammonium-N in supernatant [8]: 3.358 (0.231) mg
- Net ammonium-N in supernatant [9]: 2.830 (0.435) mg
- Net ammonium-N in supernatant [10]: 3.200 (0.308) mg
- Net ammonium-N in supernatant [11]: 2.503 (0.177) mg
- Net ammonium-N in supernatant [12]: 1.745 (0.204) mg
- Net ammonium-N in supernatant [13]: 3.168 (0.737) mg
- Net ammonium-N in supernatant [14]: 3.250 (0.424) mg
- Net ammonium-N in supernatant [15]: 3.030 (0.167) mg
- Net ammonium-N in supernatant [16]: 2.998 (0.310) mg
- Net ammonium-N in supernatant [17]: 2.543 (0.208) mg
- Net ammonium-N in supernatant [18]: 1.888 (0.139) mg
- % Difference from control [19]: −10.08%
- % Difference from control [20]: −7.75%
- % Difference from control [21]: −11.09%
- % Difference from control [22]: −14.90%
- % Difference from control [23]: −25.38%
- % Difference from control [24]: −44.60%
- Effect on ammonia-N (in words): effective in reducing ammonia-N
